The values below come from patent US9834534B2, “Neuraminidase inhibitor compounds, compositions and methods for the use thereof in anti-viral treatments” (THE UNIVERSITY OF BRITISH COLUMBIA, priority 2009, dated 2017).

Where “and” joins values, the source holds several entries; their conditions need not be identical. Equal values may be shown once. Read-outs that look alike come from different tables or passages of the source.

The target of one series is H1N1 (Influenza A virus (H1N1), UniProt Q289M4).
Chain of H1N1 (Q289M4 whole entry, looked up): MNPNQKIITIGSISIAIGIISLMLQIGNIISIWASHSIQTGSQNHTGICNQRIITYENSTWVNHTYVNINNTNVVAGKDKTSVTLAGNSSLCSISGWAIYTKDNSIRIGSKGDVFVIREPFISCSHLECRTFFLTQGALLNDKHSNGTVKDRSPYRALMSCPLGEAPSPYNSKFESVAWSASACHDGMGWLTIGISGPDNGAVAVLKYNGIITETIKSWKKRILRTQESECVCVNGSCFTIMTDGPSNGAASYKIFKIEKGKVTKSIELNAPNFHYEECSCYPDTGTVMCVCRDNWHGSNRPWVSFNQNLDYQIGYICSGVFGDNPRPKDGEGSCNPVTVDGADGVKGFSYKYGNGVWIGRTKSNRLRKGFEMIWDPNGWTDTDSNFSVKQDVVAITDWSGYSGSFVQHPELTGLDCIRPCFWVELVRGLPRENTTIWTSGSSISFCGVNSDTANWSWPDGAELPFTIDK
For the next series, the target named is H1N1 OsR (Influenza A virus (H1N1), UniProt Q289M4). As to conditions: for ki: pH 7.6.
Chain of H1N1 OsR (Q289M4 whole entry, looked up): as above
Another series relates to sH1N1/01 wt. Briefly: microbe, parasite or virus in culture. In kind it is cell-based. The following applies: Influenza A virus, read-out: IC50 sH1N1/01 wt.
Series [1] deals with Auckland pH1N1 wt (A/Auckland/3/2009). Briefly: microbe, parasite or virus in culture. The format is cell-based. The following applies: Influenza A virus, read-out: IC50 Auckland pH1N1 wt.
The next series concerns B/Perth wt. In words: microbe, parasite or virus in culture. In kind it is cell-based. As to conditions: Influenza B virus, read-out: sensitivity to inhibitors, B/Perth wt.
The subject of another series is sH1N1/08 wt. Briefly: microbe, parasite or virus in culture. In kind it is cell-based. The following applies: Influenza A virus, read-out: IC50 sH1N1/08 wt.
Another series has as its system Fukui H3N2 wt. In words: microbe, parasite or virus in culture. In kind it is cell-based. The following applies: Influenza A virus, H3N2, read-out: IC50 Fukui H3N2 wt.
Series [2] concerns B/Florida wt (B/Florida/4/2006). Briefly: microbe, parasite or virus in culture. The format is cell-based. As to conditions: Influenza B virus, read-out: IC50 B/Florida wt.
The subject of series [3] is influenza A/Brisbane/10/2007 (H3N2). In words: microbe, parasite or virus in culture. In kind it is cell-based, influenza A virus.
For series [4], the system named is influenza A/Denver/1/57 (H1N1). In words: microbe, parasite or virus in culture. In kind it is cell-based, influenza A virus. The following applies: Influenza A virus, H1N1, MDCK, read-out: Cytoprotective effect.
The target in series [5] is influenza sialidase (subtype N9) (Influenza A virus, UniProt P03472). Briefly: biochemical. In kind it is biochemical.
Chain of influenza sialidase (subtype N9) (P03472 whole entry, looked up): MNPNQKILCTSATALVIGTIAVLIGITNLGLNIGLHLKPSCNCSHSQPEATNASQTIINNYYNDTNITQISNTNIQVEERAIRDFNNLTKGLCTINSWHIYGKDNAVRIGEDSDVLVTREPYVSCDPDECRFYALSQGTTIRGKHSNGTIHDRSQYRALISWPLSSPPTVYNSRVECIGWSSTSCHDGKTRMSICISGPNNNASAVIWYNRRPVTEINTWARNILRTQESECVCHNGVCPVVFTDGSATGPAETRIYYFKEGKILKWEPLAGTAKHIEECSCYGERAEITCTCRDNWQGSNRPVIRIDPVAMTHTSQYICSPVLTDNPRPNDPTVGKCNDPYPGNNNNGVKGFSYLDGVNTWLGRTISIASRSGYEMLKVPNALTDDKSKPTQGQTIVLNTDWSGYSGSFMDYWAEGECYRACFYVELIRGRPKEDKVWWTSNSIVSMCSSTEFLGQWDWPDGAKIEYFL
The conditions of series [6]: 1 mg/kg.
The test system of another series is A/New Caledonia (H1N1). In kind it is cell-based, influenza A virus.
Series [7] deals with influenza B/Florida/04/06. The format is cell-based.
Series [8] has as its system influenza B/HongKong/5/72. Briefly: microbe, parasite or virus in culture. The format is cell-based, influenza B virus. As to conditions: Influenza B virus, MDCK, read-out: Cytoprotective effect.
Series [9] concerns influenza A virus, A/HK/1/68 (H3N2). Details: species or system Balb/C mice (Mus musculus). As to conditions: mouse, in vivo.
The next series deals with A/Denver (H1N1). The format is cell-based, influenza A virus.
The subject of another series is MDCK cells. The following applies: dog.
A further series deals with A/Brisbane NML (H3N2). The format is cell-based, influenza A virus.

`CC(=O)NC1C(N)C(F)C(F)(C(=O)O)OC1[C@H](O)[C@H](O)CO` (stereo in doubt) [Compound 2eq3eq4NH2, 5-Acetamido-2,4,5-trideoxy-4-amino-2α, 3β-difluoro-α-D-erythro-L-gluco-nonulo-pyranosonate]: the “Half life for reactivation” value on H1N1 came out at 4 h. Also, on H1N1 OsR, the “Half life for reactivation” value came out at 2 h and the ki worked out at 4.7 ± 0.1 min⁻¹.

As to `CC(=O)NC1C(NC(=N)N)C(F)C(F)(C(=O)O)OC1[C@H](O)[C@H](O)CO` (stereo partly drawn) [4-G3Feq diF SA, 5-Acetamido-2,4,5-trideoxy-2α, 3β-difluoro-4-guanidino-α-D-erythro-L-gluco-nonulopyranosonate], the IC50 was determined as 12.6 nM in the series on sH1N1/01 wt; 4 nM in series [1]; 4.5 nM with B/Perth wt; 6.8 nM in the series on sH1N1/08 wt; 24900 nM with Fukui H3N2 wt; 2 nM in series [2]. For the same compound, the “Half life for reactivation” value on H1N1 OsR amounted to 9 h. Also, the ki on H1N1 OsR stood at 1.5 ± 0.16 min⁻¹.

Turning to `CC(=O)N[C@@H]1[C@@H](N)[C@@H](F)[C@](F)(C(=O)O)O[C@H]1[C@H](O)[C@H](O)CO` [Compound 4, (2R,3R)-4-Amino-2,4-dideoxy-2,3-difluorosialic acid], the Cytoprotective effect was determined as 9.2 ng/mL in [3], 947 ng/mL in series [7] (Replicate 1) and 1074 ng/mL in series [7] (Replicate 2). Moreover, the minimal effective concentration stood at 0.0069 µg/mL in series [3] (Influenza A virus, H3N2, MDCK, read-out: Cytoprotective effect); 0.888 µg/mL in [4]; 1.78 µg/mL in [8]. In addition, the “half time for the full inactivation of the sialidase” value in series [5] was “ca. 10 min”. The “half time for the full reactivation of the inactivated sialidase” value in [5] worked out at 4.8 h. Moreover, the affinity in series [5] (30° C., pH 7.6), expressed as Kd, was 4000 nM. For the same compound, the Ki (commonly the equilibrium dissociation constant of an inhibitor or competing ligand from its target) in series [5] (30° C., pH 7.6) is 93 nM and 93.2 nM. In series [5] (30° C., pH 7.6), this compound returned a khyd of 0.0024 min⁻¹. Also, the “% weight loss mean +/− SD” value in series [6] (mouse, in vivo) is 2.68 +/− 1.76%; in series [9] (1 mg/kg), 16.02 +/− 2.07%. Also, the “number of animals remaining” value in series [6] (n = 5) is listed as 5. The “concentration of antiviral at which a confluent monolayer of MDCK cells was protected” value in the series with A/New Caledonia (H1N1) is <12.854^A μM; in the series on A/Denver (H1N1), <12.854^A μM; in the series with A/Brisbane NML (H3N2), 51.415^B μM. Moreover, the “survival compared to the untreated control group” value in series [9] is recorded as “somewhat extend survival”. Moreover, in the series on MDCK cells, the Toxicity came to 3.6 µg/mL.
